The text below walks through data of US6509361B1, “1,5-Diaryl substituted pyrazoles as p38 kinase inhibitors” (Pharmacia Corporation, priority 2001, dated 2003).

Where only a bound is given, the exact number is not on record here.

Data set [1] concerns TNF-α released by U937 cells (human histiocytic lymphoma cell line). Description: U937 Cell Assay: LPS stimulation of TNF production by U937 cells, ELISA. In kind it is cell-based. The following applies: U-937, differentiated U937 cells, LPS 100 ng/ml, 4 hour incubation. Here is the method:
Maintenance and Differentiation of the U937 Human Histiocytic Lymphoma Cell Line:
U937 cells (ATCC) were propagated in RPMI 1640 containing 10% fetal bovine serum, 100 IU/ml penicillin, 100 μg/ml streptomycin, and 2 mM glutamine (Gibco). Fifty million cells in 100 ml media were induced to terminal monocytic differentiation by 24 hour incubation with 20 ng/ml phorbol 12-myristate 13-acetate (Sigma). The cells were washed by centrifugation (200×g for 5 min) and resuspended in 100 ml fresh medium. After 24-48 hours, the cells were harvested, centrifuged, and resuspended in culture medium at 2 million cells/ml.
LPS Stimulation of TNF Production by U937 Cells:
U937 cells (0.1 ml, 2 million/ml) were incubated with 0.1 ml compound (0.004-50 μM, final concentration) for 1 hour in 96 well microtiter plates. Compounds were prepared as 10 mM stock solutions in DMSO and diluted in culture medium to yield a final DMSO concentration of 0.1% in the cell assay. LPS (E. coli, 100 ng/ml final concentration) was then added at a volume of 0.02 ml. After 4 hour incubation at 37° C., the amount of TNF-α released in the culture medium was quantitated by ELISA. Inhibitory potency is expressed as IC50 (μM).

The target in data set [2] is T1, human p38 kinase alpha (Homo sapiens, UniProt Q16539).
T1 construct: The coding region of the human p38a cDNA was obtained by PCR-amplification from RNA isolated from the human monocyte cell line THP.1; GST (N); made in house; host or cells: E. coli DH10B
T1 sequence (Q16539 whole entry): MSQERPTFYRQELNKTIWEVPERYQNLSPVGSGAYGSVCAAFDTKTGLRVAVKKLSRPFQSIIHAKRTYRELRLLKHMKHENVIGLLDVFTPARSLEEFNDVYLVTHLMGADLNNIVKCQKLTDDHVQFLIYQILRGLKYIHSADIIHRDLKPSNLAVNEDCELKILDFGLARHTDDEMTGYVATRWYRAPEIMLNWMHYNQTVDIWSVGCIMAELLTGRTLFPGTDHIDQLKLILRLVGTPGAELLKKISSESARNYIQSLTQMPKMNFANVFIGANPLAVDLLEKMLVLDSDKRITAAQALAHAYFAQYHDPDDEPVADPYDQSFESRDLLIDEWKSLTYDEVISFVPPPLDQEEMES
The experiment in a line: p38 Kinase Assay (in vitro; PHAS-I/32P-ATP format or EGFRP/33P-ATP format). It counts as biochemical. The following applies: activated human p38 kinase alpha, 50 μM unlabeled ATP; table does not say which of the two assay formats. Here is the method: The coding region of the human p38a cDNA was obtained by PCR-amplification from RNA isolated from the human monocyte cell line THP.1. First strand cDNA was synthesized from total RNA as follows: 2 μg of RNA was annealed to 100 ng of random hexamer primers in a 10 μl reaction by heating to 70° C. for 10 minutes followed by 2 minutes on ice. cDNA was then synthesized by adding 1 μl of RNAsin (Promega, Madison Wis.), 2 μl of 50 mM dNTP's, 4 μl of 5×buffer, 2 μl of 100 mM DTT and 1 μl (200 U) of Superscript II™ […] reverse transcriptase. Random primer, dNTP's and Superscript™ reagents were all purchased from Life-Technologies, Gaithersburg, Mass. The reaction was incubated at 42° C. for 1 hour. Amplification of p38 cDNA was performed by aliquoting 5 μl of the reverse transcriptase reaction into a 100 μl PCR reaction containing the following: 80 μl dH2O, 2 μl 50 mM dNTP's, 1 μl each of forward and reverse primers (50 pmol/μl), 10 μl of 10× buffer and 1 μl Expand™ polymerase (Boehringer Mannheim). The PCR primers incorporated Bam HI sites onto the 5′ and 3′ end of the amplified fragment, and were purchased from Genosys. The forward and reverse primers were 5′-[…]-3′ and 5′[…]-3′, respectively. The PCR amplification was carried out in a DNA Thermal Cycler (Perkin Elmer) by repeating 30 cycles of 94° C. for 1 minute, 60° C. for 1 minute and 68° C. for 2 minutes. After amplification, excess primers and unincorporated dNTP's were removed from the amplified fragment with a Wizard™ PCR prep (Promega) and digested with Bam HI (New England Biolabs). The Bam HI digested fragment was ligated into BamHI digested pGEX 2T plasmid DNA (PharmaciaBiotech) using T-4 DNA ligase (New England Biolabs) as described by T. Maniatis, Molecular Cloning: A Laboratory Manual, 2nd ed. (1989). The ligation reaction was transformed into chemically competent E. coli DH10B cells purchased from Life-Technologies following the manufacturer's instructions. Plasmid DNA was isolated from the resulting bacterial colonies using a Promega Wizard™ miniprep kit. Plasmids containing the appropriate Bam HI fragment were sequenced in a DNA Thermal Cycler (Perkin Elmer) with Prism™ (Applied Biosystems Inc.). cDNA clones were identified that coded for both human p38a isoforms (Lee et al. Nature 372, 739). One of the clones which contained the cDNA for p38a-2 (CSBP-2) inserted in the cloning site of pGEX 2T, 3′ of the GST coding region was designated pMON 35802. The sequence obtained for this clone is an exact match of the cDNA clone reported by Lee et al. This expression plasmid allows for the production of a GST-p38a fusion protein.
Expression of Human p38a:
GST/p38a fusion protein was expressed from the plasmid pMON 35802 in E. coli, stain DH10B (Life Technologies, Gibco-BRL). Overnight cultures were grown in Luria Broth (LB) containing […] ampicillin. The next day, 500 ml of fresh LB was inoculated with 10 ml of overnight culture, and grown in a 2 liter flask at 37° C. with constant shaking until the culture reached an absorbance of 0.8 at 600 nm. Expression of the fusion protein was induced by addition of isopropyl b-D-thiogalactosidse (IPTG) to a final concentration of 0.05 mM. The cultures were shaken for three hours at room temperature, and the cells were harvested by centrifugation. The cell pellets were stored frozen until protein purification.
Purification of p38 Kinase-α:
All chemicals were from Sigma Chemical Co. unless noted. Twenty grams of E. coli cell pellet collected from five 1 L shake flask fermentations was resuspended in a volume of PBS (140 mM NaCl, 2.7 mM KCl, 10 mM Na2HPO4, 1.8 mM KH2PO4, pH 7.3) up to 200 ml. The cell suspension was adjusted to 5 mM DTT with 2 M DTT and then split equally into five 50 ml Falcon conical tubes. The cells were sonnicated (Ultrasonics model W375) with a 1 cm probe for 3×1 minutes (pulsed) on ice. […]

In data set [3] the test system is TNF-a (LPS-stimulated human peripheral blood mononuclear cells). Description: TNF Cell Assay: LPS stimulation of human PBM cells, TNF-a by ELISA. It counts as cell-based. The following applies: PBMC, LPS 20 ng/ml, overnight 37° C., compound 10-0.41 μM. Here is the method: Method of Isolation of Human Peripheral Blood Mononuclear Cells:
Human whole blood was collected in Vacutainer tubes containing EDTA as an anticoagulant. A blood sample (7 ml) was carefully layered over 5 ml PMN Cell Isolation Medium (Robbins Scientific) in a 15 ml round bottom centrifuge tube. The sample was centrifuged at 450-500×g for 30-35 minutes in a swing out rotor at room temperature. After centrifugation, the top band of cells were removed and washed 3 times with PBS w/o calcium or magnesium. The cells were centrifuged at 400×g for 10 minutes at room temperature. The cells were resuspended in Macrophage Serum Free Medium (Gibco BRL) at a concentration of 2 million cells/ml.
LPS Stimulation of Human PBMS:
PBM cells (0.1 ml, 2 million/ml) were co-incubated with 0.1 ml compound (10-0.41 μM, final concentration) for 1 hour in flat bottom 96 well microtiter plates. Compounds were dissolved in DMSO initially and diluted in TCM for a final concentration of 0.1% DMSO. LPS (Calbiochem, 20 ng/ml, final concentration) was then added at a volume of 0.010 ml. Cultures were incubated overnight at 37° C. Supernatants were then removed and tested by ELISA for TNF-a and IL1-b. Viability was analyzed using MTS. After 0.1 ml supernatant was collected, 0.020 ml MTS was added to remaining 0.1 ml cells. The cells were incubated at 37° C. for 2-4 hours, then the O.D. was measured at […].

In the case of `Cc1cnn(-c2ccc(F)cc2)c1-c1ccncc1` [Example 1], the melting point (in general, the temperature of the solid-liquid transition) turned out to be 135.86 °C. In addition, the IC50 (in general, the concentration that inhibits the measured activity by half) in data set [1] was no less than 10 µM. Besides, the IC50 in data set [2] worked out at 16.8 µM. The compound further showed an IC50 in data set [3] of 0.1 µM.
In the same order, the values of `Cc1cccc(-n2ncc(C)c2-c2ccncc2)c1` [Example 3] are 141.77 °C, 0.66 µM, 4.9 µM and 0.6 µM.
`CCNc1cc(-c2cc(C)nn2-c2ccc(C)cc2)ccn1` [Example 8] came in with a melting point of 97.15 °C. Also, the IC50 in data set [1] came out at 0.72 µM. In addition, in data set [2], it took 0.07 µM to reach half-maximal inhibition (IC50). Half-maximal inhibition in data set [3] (IC50) required 0.2 µM.
The compound `CNc1cc(-c2cc(C)nn2-c2ccc(C)cc2)ccn1` [Example 9] yielded a melting point of 126.34 °C. In addition, the IC50 in data set [1] worked out at 17.9 µM. The IC50 in data set [2] turned out to be 0.29 µM. Besides, it took 0.1 µM to reach half-maximal inhibition in data set [3] (IC50).
`Cc1cc(-c2ccnc(NCCO)c2)n(-c2ccc(Cl)cc2)n1` [Example 11] showed a melting point of 137.57 °C. Also, the IC50 in data set [1] was found to be 0.48 µM. This compound gave an IC50 in data set [2] of 0.07 µM. 0.1 µM corresponded to half-maximal inhibition in data set [3] (IC50).
In the same order, the values of `Cc1cc(-c2ccnc(NCc3ccccc3)c2)n(-c2ccc(Cl)cc2)n1` [Example 12] are 105.53 °C, 0.2 µM, 0.003 µM and 0.3 µM.
On to `Cc1cc(-c2ccnc(NCCc3ccccc3)c2)n(-c2ccc(Cl)cc2)n1` [Example 13], for which the values for the IC50 in data set [1], in data set [2] and in data set [3] were 0.86 µM, 0.05 µM and 0.1 µM, respectively.
For the compound `CCNc1cc(-c2ccncc2)n(-c2ccc(F)cc2)n1` [Example 15], the IC50 is no less than 10 µM in data set [1], greater than 100 µM in data set [2] and greater than 10 µM in data set [3].
`NC(=O)c1cnn(-c2ccc(F)cc2)c1-c1ccncc1` [Example 16, 1-(4-Fluorophenyl)-5-(4-pyridinyl)-1H-pyrazole-4-carboxamide] yielded a melting point of 215 to 216 °C. Also, the IC50 in data set [1] is greater than 10 µM. In data set [2], this compound had an IC50 of 7.72 µM. The same compound gave an IC50 in data set [3] greater than 10 µM.
Regarding `O=C(c1cnn(-c2ccc(F)cc2)c1-c1ccncc1)N1CCNCC1` [Example 17], the results for the IC50 in data set [1], in data set [2] and in data set [3] were no less than 10 µM, 65.1 µM and greater than 10 µM, respectively.
Consider `Fc1ccc(-n2ncc(N3CCNCC3)c2-c2ccncc2)cc1` [Example 18], for which the figures for the concentration for half-maximal inhibition (IC50) in data set [1], in data set [2] and in data set [3] were no less than 10 µM, 35.7 µM and greater than 10 µM, respectively.
`COc1cc(-c2cc(C)nn2-c2cccc(C)c2)ccn1` [Example 22, 2-Methoxy-4-[1-(3-methylphenyl)-3-methyl-1H-pyrazol-5-yl]pyridine]: the IC50 worked out at 1.31 µM in data set [1], 0.079 µM in data set [2] and 1.9 µM in data set [3].
`Cc1cccc(-n2nc(C)cc2-c2cc[nH]c(=O)c2)c1` [Example 23, 4-[1-(3-Methylphenyl)-3-methyl-1H-pyrazol-5-yl]-2-pyridone] yielded a melting point of 182 to 183 °C. For the same compound, the IC50 in data set [1] was no less than 10 µM. This compound showed an IC50 in data set [2] of 9.55 µM. This compound also yielded an IC50 in data set [3] of 2.4 µM.
As to `Cc1cccc(-n2nc(C)cc2-c2ccnc(NCCO)c2)c1` [Example 26, 2-(2-Hydroxyethylamino)-4-[1-(3-methylphenyl)-3-methyl-1H-pyrazol-5-yl]pyridine], the IC50 in data set [1] worked out at 0.21 µM; in data set [2], 0.156 µM; in data set [3] it was 0.1 µM.
Regarding `Cc1cccc(-n2nc(C)cc2-c2ccnc(N(C)Cc3ccccc3)c2)c1` [Example 27, 2-(N-Methylbenzylamino)-4-[1-(3-methylphenyl)-3-methyl-1H-pyrazol-5-yl]pyridine], the figures for the IC50 in data set [1], in data set [2] and in data set [3] were no less than 10 µM, greater than 100 µM and greater than 10 µM, respectively.
The like results for `Cc1cccc(-n2nc(C)cc2-c2ccnc(OCc3ccccc3)c2)c1` [Example 28, 2-Bezyloxy-4-[1-(3-methylphenyl)-3-methyl-1H-pyrazol-5-yl]pyridine] were, in that order, 2.64 µM, 0.843 µM and greater than 10 µM.
`Fc1ccc(-n2nccc2-c2ccnc(NCc3ccccc3)c2)cc1` [Example 29, 2-(Benzylamino)-4-[1-(4-fluorophenyl)-1H-pyrazol-5-yl]pyridine]: the results for the IC50 in data set [1], in data set [2] and in data set [3] were 0.24 µM, 0.129 µM and 1.3 µM, respectively.
As to `O=C(O)c1cnn(-c2ccc(F)cc2)c1-c1ccncc1` [Example 43], the IC50 in data set [1] is no less than 10 µM; in data set [2], 65.1 µM.
Regarding `Fc1ccc(-n2nccc2-c2ccnc(Cl)c2)cc1` [Example 45, 2-Chloro-4-[1-(4-fluorophenyl)-1H-pyrazol-5-yl]pyridine], the IC50 in data set [1] is no less than 10 µM; in data set [2] it was 1.06 µM; in data set [3] it was 8.1 µM.
For `Cc1cc(-c2ccnc(Cl)c2)n(-c2cccc(F)c2)n1` [Example 46, 2-Chloro-4-[1-(3-fluorophenyl)-3-methyl-1H-pyrazol-5-yl]pyridine], the figures for the IC50 in data set [1] and in data set [2] were greater than 10 µM and 67.7 µM, respectively.
